For assay [1], the system named is α-galactosidase (α-GAL), free (unencapsulated). The assay can be described thus: Enzyme activity of free α-GAL, Michaelis-Menten/Lineweaver-Burk plot with Gal-AMC. Type of assay: biochemical. The conditions noted are these: substrate Gal-AMC, PBS, 37° C., AMC fluorescence Ex/Em=350 nm/450 nm. Here is the method: Enzyme activity was evaluated with respect to free α-GAL and encapsulated α-GAL, respectively. The enzyme activity of α-GAL was checked by the reaction with a substrate, α-galactosyl-β-(7-amide-4-methyl coumarin) (also referred to as “Gal-AMC”) as shown in FIG. 19B. Gal-AMC is decomposed by the enzyme activity of α-GAL to produce 7-amino-4-methyl coumarin (also referred to as “AMC”), which emits fluorescence (Ex/Em=350 nm/450 nm).
More specifically, first, PBS solutions of Gal-AMC, free α-GAL, and encapsulated α-GAL were each placed in a thermostatic chamber and allowed to stand still at 37° C. Thereafter, the Gal-AMC solution was mixed with the free α-GAL or encapsulated α-GAL solution. From the solution mixture, an aliquot (predetermined amount) was taken and immediately poured to a 96 well plate (TECAN). The plate was placed in a multiplate reader kept at 37° C. in advance and fluorescence intensity was measured periodically for a predetermined time.
The enzyme activity was evaluated by preparing the Michaelis-Menten plot and Lineweaver-Burk plot. At this time, using a calibration curve previously prepared by using an AMS standard solution, a change of fluorescence intensity was converted into the production rate of a product. In this manner, a reaction rate V was obtained. Measurement was performed by changing the substrate concentration [S] variously. […]

The subject of assay [2] is α-galactosidase (α-GAL), encapsulated in PICsome. The assay can be described thus: Enzyme activity of α-GAL encapsulated in PICsome, Michaelis-Menten/Lineweaver-Burk plot with Gal-AMC. Type of assay: biochemical. The conditions noted are these: substrate Gal-AMC, PBS, 37° C., AMC fluorescence Ex/Em=350 nm/450 nm. The method, then:
In the same manner as in Section 5 of Example 1, a solution containing empty PICsomes was prepared. Thereafter, 11.4 mg of α-galactosidase (hereinafter referred to as “α-GAL”) was dissolved in 5.7 mL of a 10 mM phosphate buffer (PB, pH 7.4, 0 mM NaCl) to prepare a 2 mg/mL α-GAL solution.
An aliquot (1 mL) was taken from the 2 mg/mL α-GAL solution and mixed with 1 mL of the solution containing empty PICsomes. The solution mixture was stirred by a Vortex mixer for 2 minutes (2000 rpm). Thereafter, to the solution, a PB solution (5.6 mL) containing a water soluble condensing agent, EDC (10 mg/mL) was added. The mixture was allowed to stand still overnight to crosslink a polyion complex. […] A solution of fluorescence labeled α-GAL was prepared in the same manner as above.
Enzyme activity was evaluated with respect to free α-GAL and encapsulated α-GAL, respectively. […] Gal-AMC is decomposed by the enzyme activity of α-GAL to produce 7-amino-4-methyl coumarin (also referred to as “AMC”), which emits fluorescence (Ex/Em=350 nm/450 nm).
More specifically, first, PBS solutions of Gal-AMC, free α-GAL, and encapsulated α-GAL were each placed in a thermostatic chamber and allowed to stand still at 37° C. […] The plate was placed in a multiplate reader kept at 37° C. in advance and fluorescence intensity was measured periodically for a predetermined time. […]

Molecules are shown by their SMILES.

As to `Cc1cc(=O)oc2cc(N[C@H]3O[C@H](CO)[C@H](O)[C@H](O)[C@H]3O)ccc12` [Gal-AMC, α-galactosyl-β-(7-amide-4-methylcoumarin)], the values for the Km in assay [1] and in assay [2] were 180 µM and 190 µM, respectively.

For the origin of these results see patent US11096991B2, “Nanoreactor using polyion complex polymersomes, and method for producing same” (THE UNIVERSITY OF TOKYO, priority 2015, dated 2021).
